This is an account of results in ChEMBL document CHEMBL5233215, “Recent developments of chalcones as potential antibacterial agents in medicinal chemistry” (Eur J Med Chem, 2020).

By MIC is commonly meant the smallest concentration in the dilution series that meets the test's criterion for growth inhibition. What is called IC50 is the point on the concentration scale where inhibition reaches its midpoint. A high value points to lower potency.

Values after ≈ are worked out from the molar mass of the structure shown.

Assay [1] deals with Staphylococcus aureus. The assay can be described thus: Antibacterial activity methicillin-resistant Staphylococcus aureus ATCC 700699 assessed as inhibition of bacterial growth incubated for 16 hrs by CLSI protocol based microdilution method. It counts as functional. A general note: Broth dilution looks for growth in wells or tubes with falling amounts of substance.
Assay [2] deals with Staphylococcus aureus. The assay can be described thus: Antibacterial activity Staphylococcus aureus ATCC 25923 assessed as inhibition of bacterial growth incubated for 16 hrs by CLSI protocol based microdilution method. It counts as functional.
The test system of assay [3] is Staphylococcus aureus. The assay can be described thus: Antibacterial activity Staphylococcus aureus ATCC 33592 assessed as inhibition of bacterial growth incubated for 16 hrs by CLSI protocol based microdilution method. It counts as functional.
Assay [4] relates to Staphylococcus aureus. The assay can be described thus: Antibacterial activity Staphylococcus aureus ATCC 29213 assessed as inhibition of bacterial growth incubated for 16 hrs by CLSI protocol based microdilution method. It counts as functional.
In assay [5] the test system is Staphylococcus aureus. The assay can be described thus: Antibacterial activity methicillin-resistant Staphylococcus aureus P4627 assessed as inhibition of bacterial growth by microdilution broth method. Type of assay: functional.
For assay [6], the system named is Staphylococcus aureus. The assay can be described thus: Antibacterial activity methicillin-resistant Staphylococcus aureus B10760 assessed as inhibition of bacterial growth by microdilution broth method. Type of assay: functional.
Assay [7] deals with Staphylococcus aureus. The assay can be described thus: Antibacterial activity methicillin-resistant Staphylococcus aureus ST3151 assessed as inhibition of bacterial growth by microdilution broth method. It counts as functional.
Assay [8] deals with Staphylococcus aureus. The assay can be described thus: Antibacterial activity methicillin-resistant Staphylococcus aureus P4423 assessed as inhibition of bacterial growth by microdilution broth method. Type of assay: functional.
For assay [9], the system named is Staphylococcus aureus. The assay can be described thus: Antibacterial activity methicillin-resistant Staphylococcus aureus P4620 assessed as inhibition of bacterial growth by microdilution broth method. Type of assay: functional.
For a further assay, the system named is Listeria monocytogenes. The assay can be described thus: Antibacterial activity Listeria monocytogenes ATCC 7644 assessed as inhibition of bacterial growth incubated for 24 hrs by broth microdilution method. Type of assay: functional.
Assay [10] deals with Staphylococcus aureus. The assay can be described thus: Antibacterial activity Staphylococcus aureus ATCC 588 assessed as inhibition of bacterial growth incubated for 24 hrs by broth microdilution method. It counts as functional.
The subject of assay [11] is Staphylococcus aureus. The assay can be described thus: Antibacterial activity Staphylococcus aureus ATCC 6538 assessed as inhibition of bacterial growth incubated for 24 hrs by broth microdilution method. Type of assay: functional.
Assay [12] relates to Staphylococcus aureus. The assay can be described thus: Antibacterial activity Staphylococcus aureus assessed as inhibition of bacterial growth incubated for 12 to 18 hrs by NCCLS protocol based microdilution method. Type of assay: functional. The following applies: time 12-18 hrs.
A further assay relates to Klebsiella pneumoniae. The assay can be described thus: Antibacterial activity Klebsiella pneumoniae assessed as inhibition of bacterial growth incubated for 12 to 18 hrs by NCCLS protocol based microdilution method. Type of assay: functional. Particulars: time 12-18 hrs.
For a further assay, the system named is Enterococcus faecalis. The assay can be described thus: Antibacterial activity Enterococcus faecalis ATCC 33186 assessed as inhibition of bacterial growth by CLSI based microbroth dilution assay. It counts as functional.
In another assay the test system is Bacillus anthracis. The assay can be described thus: Antibacterial activity Bacillus anthracis Sterne 34F2 assessed as inhibition of bacterial growth by CLSI based microbroth dilution assay. Type of assay: functional.
Assay [13] relates to Staphylococcus aureus. The assay can be described thus: Antibacterial activity methicillin-resistant Staphylococcus aureus USA300 assessed as inhibition of bacterial growth by CLSI based microbroth dilution assay. Type of assay: functional.
The test system of assay [14] is Escherichia coli. The assay can be described thus: Antimicrobial activity against Escherichia coli assessed as bacterial growth inhibition incubated for 18 hrs by broth micro dilution method. It counts as functional.
Assay [15] deals with Staphylococcus aureus. The assay can be described thus: Antimicrobial activity against Staphylococcus aureus assessed as bacterial growth inhibition incubated for 18 hrs by broth micro dilution method. Type of assay: functional.
For a further assay, the system named is Salmonella typhimurium. The assay can be described thus: Antimicrobial activity against Salmonella typhimurium assessed as bacterial growth inhibition incubated for 18 hrs by broth micro dilution method. It counts as functional, Salmonella enterica subsp. enterica serovar Typhimurium. Particulars: Salmonella enterica.
Assay [16] deals with Streptococcus pyogenes. The assay can be described thus: Antimicrobial activity against Streptococcus pyogenes assessed as bacterial growth inhibition incubated for 18 hrs by broth micro dilution method.
The target of the next assay is DNA gyrase (Staphylococcus aureus, UniProt P0A0K8+P20831). The assay can be described thus: Inhibition of Staphylococcus aureus DNA gyrase. Type of assay: protein-complex assay.
For assay [17], the system named is Staphylococcus aureus. The assay can be described thus: Antibacterial activity Staphylococcus aureus assessed as inhibition of bacterial growth by […] dye based colorimetric method. It counts as functional.
In assay [18] the test system is Escherichia coli. The assay can be described thus: Antibacterial activity Escherichia coli assessed as inhibition of bacterial growth by […] dye based colorimetric method. Type of assay: functional.
Assay [19] deals with Streptococcus pyogenes. The assay can be described thus: Antibacterial activity Streptococcus pyogenes assessed as inhibition of bacterial growth by […] dye based colorimetric method. Type of assay: functional.

Sequence of DNA gyrase (P0A0K8 whole entry): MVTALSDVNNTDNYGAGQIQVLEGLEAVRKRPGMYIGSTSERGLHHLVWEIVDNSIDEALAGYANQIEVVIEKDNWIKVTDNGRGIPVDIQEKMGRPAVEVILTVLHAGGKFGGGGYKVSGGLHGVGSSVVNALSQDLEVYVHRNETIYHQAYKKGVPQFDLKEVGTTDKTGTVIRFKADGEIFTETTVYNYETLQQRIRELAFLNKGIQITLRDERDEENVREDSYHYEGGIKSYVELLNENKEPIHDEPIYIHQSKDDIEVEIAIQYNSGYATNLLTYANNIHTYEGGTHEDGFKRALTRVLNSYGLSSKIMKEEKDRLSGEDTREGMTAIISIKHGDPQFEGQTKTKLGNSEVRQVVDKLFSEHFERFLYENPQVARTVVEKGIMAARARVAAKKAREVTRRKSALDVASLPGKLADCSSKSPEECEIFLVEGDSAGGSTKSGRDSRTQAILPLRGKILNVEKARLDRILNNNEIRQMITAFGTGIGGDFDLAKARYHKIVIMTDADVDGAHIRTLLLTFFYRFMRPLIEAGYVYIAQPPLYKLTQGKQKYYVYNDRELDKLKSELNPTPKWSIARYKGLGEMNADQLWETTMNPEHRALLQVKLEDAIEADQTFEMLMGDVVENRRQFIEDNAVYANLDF
Sequence of DNA gyrase (P20831 whole entry): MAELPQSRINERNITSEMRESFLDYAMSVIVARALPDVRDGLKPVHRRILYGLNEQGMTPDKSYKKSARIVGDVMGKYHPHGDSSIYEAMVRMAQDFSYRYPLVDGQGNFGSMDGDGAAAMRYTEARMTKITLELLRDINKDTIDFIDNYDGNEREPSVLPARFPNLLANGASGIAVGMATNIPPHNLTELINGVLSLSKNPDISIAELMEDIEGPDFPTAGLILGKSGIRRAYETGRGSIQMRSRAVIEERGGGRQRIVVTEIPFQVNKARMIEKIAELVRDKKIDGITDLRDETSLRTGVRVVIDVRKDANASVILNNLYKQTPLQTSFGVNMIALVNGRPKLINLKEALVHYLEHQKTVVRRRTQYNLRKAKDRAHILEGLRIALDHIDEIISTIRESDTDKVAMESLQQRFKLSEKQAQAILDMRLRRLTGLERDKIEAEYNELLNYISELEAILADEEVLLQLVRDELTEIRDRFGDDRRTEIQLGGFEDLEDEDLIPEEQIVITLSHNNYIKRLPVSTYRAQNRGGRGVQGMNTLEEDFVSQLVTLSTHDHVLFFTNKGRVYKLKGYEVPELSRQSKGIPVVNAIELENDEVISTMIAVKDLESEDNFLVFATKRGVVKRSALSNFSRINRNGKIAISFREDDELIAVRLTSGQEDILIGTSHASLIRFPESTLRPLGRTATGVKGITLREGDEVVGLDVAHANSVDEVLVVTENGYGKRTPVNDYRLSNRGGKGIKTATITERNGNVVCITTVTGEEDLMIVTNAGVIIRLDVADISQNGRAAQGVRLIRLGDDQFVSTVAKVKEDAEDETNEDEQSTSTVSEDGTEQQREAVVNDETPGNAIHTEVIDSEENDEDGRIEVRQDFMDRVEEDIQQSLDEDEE

Take `COc1ccc(-c2csc(/N=C/c3cc(/C=C/C(=O)c4ccc(C)cc4)cc(C(C)(C)C)c3O)n2)cc1OC`: the minimal inhibitory concentration (MIC) in the assay with Staphylococcus aureus [1] amounted to 11.6 mg/L (≈ 21.5 µM); with Staphylococcus aureus [2] it was 5.8 mg/L (≈ 10.7 µM); in the assay with Staphylococcus aureus [3], 1.4 mg/L (≈ 2.59 µM); with Staphylococcus aureus [4], 5.8 mg/L (≈ 10.7 µM).

On to `O=C(/C=C/c1ccc(O)cc1)c1ccc2c(c1O)CN(Cc1cc(C(F)(F)F)ccc1Cl)CO2`, for which the MIC in the assay on Staphylococcus aureus [5], with Staphylococcus aureus [6], in the assay with Staphylococcus aureus [7], in the assay with Staphylococcus aureus [8] and in the assay with Staphylococcus aureus [9] was 25 mg/L (≈ 51 µM) in each case.

Regarding `O=C(CCc1ccc(O)cc1)c1c(O)cc(O)cc1O` [PHLORETIN], the minimal inhibitory concentration (MIC) came out at 62.5 mg/L (≈ 228 µM) in the assay on Listeria monocytogenes, 7.81 mg/L (≈ 28.5 µM) in the assay on Staphylococcus aureus [10] and 7.81 mg/L (≈ 28.5 µM) in the assay on Staphylococcus aureus [11].

For the compound `Nc1ccccc1C(=O)CC(c1ccc(Cl)cc1)S(=O)(=O)c1ccccc1` (stereo not given), the MIC in the assay on Staphylococcus aureus [12] was found to be 1.95 mg/L (≈ 4.88 µM); with Klebsiella pneumoniae, 25.5 mg/L (≈ 63.8 µM).

As to `Cc1cc(C(=O)CC(Sc2ccc(Cl)cc2)c2ccc(Cl)cc2)ccc1O` (stereo not given), the minimal inhibitory concentration (MIC) in the assay on Enterococcus faecalis is 1.56 mg/L (≈ 3.74 µM); in the assay with Bacillus anthracis it was 3.12 mg/L (≈ 7.49 µM); in the assay on Staphylococcus aureus [13] it was 0.78 mg/L (≈ 1.87 µM).

On to `Cc1cc(C(=O)/C=C/c2c(C)cn(-c3ccccc3)c2C)c(C)s1`, for which the MIC was determined as 16 mg/L (≈ 47.7 µM) in the assay on Escherichia coli [14], 32 mg/L (≈ 95.4 µM) in the assay with Staphylococcus aureus [15], 16 mg/L (≈ 47.7 µM) in the assay on Salmonella typhimurium and 32 mg/L (≈ 95.4 µM) in the assay on Streptococcus pyogenes [16].

`Cc1c(Cl)ccc2cc(/C=C/C(=O)c3ccc(Br)cc3)c(Cl)nc12`: inhibition on DNA gyrase was half-maximal at 0.332 µM (IC50). The MIC in the assay on Staphylococcus aureus [17], in the assay with Escherichia coli [18] and with Streptococcus pyogenes [19] was 125 mg/L (≈ 297 µM) throughout.
